Literature values, collected in publication PMC9186412, “Rational Framework for the Design of Trp- and Arg-Rich Peptide Antibiotics Against Multidrug-Resistant Bacteria” (Frontiers in Microbiology, 2022).

System: human red blood cells (RBCs)
Details: at 16 μM; ref de Breij et al., 2018; cited from earlier work

Q: Which RBC lysis does the source give for “Ac-LKRVWKRVFKLLKRYWRQLKKPVR-NH2 [SAAP-148]” here?
A: Its RBC lysis is “moderate RBC lysis”.
